Results: article PMC9329436, “Optimization of the 4-anilinoquin(az)oline scaffold as epidermal growth factor receptor (EGFR) inhibitors for chordoma utilizing a toxicology profiling assay platform” (Scientific Reports, 2022)
Like-named read-outs stand apart in the source and are kept apart here.

Assays:
Format in all cases: biochemical
[1] = target: 320 wild-type protein kinases (Homo sapiens, UniProt Q02779); conditions: singlicate
From the text: (§1) Table S4. Profiling of two compounds at two concentrations against 320 wild-type protein kinases; singlicate measurement; Residual activities (% of control).

[2] = target: 320 wild-type protein kinases (Homo sapiens, UniProt P45983); conditions: singlicate
From the text: as §1

[3] = target: 320 wild-type protein kinases (Homo sapiens, UniProt P36894); conditions: BMPR1A, singlicate
From the text: as §1

[4] = target: 320 wild-type protein kinases (Homo sapiens, UniProt P08631); conditions: HCK, singlicate
From the text: as §1

[5] = target: 320 wild-type protein kinases (Homo sapiens, UniProt P30291); conditions: kinase WEE1, singlicate
From the text: as §1

[6] = target: T1, 320 wild-type protein kinases (Homo sapiens, UniProt Q96PF2); conditions: kinase TSK2, singlicate
T1 sequence (Q96PF2 1-358): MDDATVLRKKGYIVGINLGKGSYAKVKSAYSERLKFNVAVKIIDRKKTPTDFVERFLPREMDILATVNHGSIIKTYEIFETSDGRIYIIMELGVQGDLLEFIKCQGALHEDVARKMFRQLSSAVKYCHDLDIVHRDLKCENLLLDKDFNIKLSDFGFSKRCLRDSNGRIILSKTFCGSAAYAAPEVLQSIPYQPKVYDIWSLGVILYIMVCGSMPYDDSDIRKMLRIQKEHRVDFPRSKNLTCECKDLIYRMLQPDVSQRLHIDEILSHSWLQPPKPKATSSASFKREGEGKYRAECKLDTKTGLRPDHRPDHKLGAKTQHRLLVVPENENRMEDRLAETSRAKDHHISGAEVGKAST
From the text: as §1

[7] = target: T2, 320 wild-type protein kinases (Homo sapiens, UniProt O00141); conditions: kinase SGK1, singlicate
T2 sequence (O00141 1-431): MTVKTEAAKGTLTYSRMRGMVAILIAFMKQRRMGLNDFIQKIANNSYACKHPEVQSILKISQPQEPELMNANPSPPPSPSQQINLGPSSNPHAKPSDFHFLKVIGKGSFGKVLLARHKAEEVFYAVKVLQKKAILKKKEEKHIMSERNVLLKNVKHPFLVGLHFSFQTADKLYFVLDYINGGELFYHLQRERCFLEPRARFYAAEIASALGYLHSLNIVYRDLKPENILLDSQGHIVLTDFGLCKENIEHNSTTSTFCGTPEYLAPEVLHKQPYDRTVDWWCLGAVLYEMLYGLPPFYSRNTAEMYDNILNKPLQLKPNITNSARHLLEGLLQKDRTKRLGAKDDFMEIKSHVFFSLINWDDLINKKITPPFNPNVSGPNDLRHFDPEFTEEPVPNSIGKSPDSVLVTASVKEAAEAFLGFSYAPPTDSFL
From the text: as §1

[8] = target: 320 wild-type protein kinases (Homo sapiens, UniProt P06241); conditions: FYN, singlicate
From the text: as §1

[9] = target: T3, 320 wild-type protein kinases (Homo sapiens, UniProt P36897); conditions: kinase TGFB-R1, singlicate
T3 sequence (P36897 34-503): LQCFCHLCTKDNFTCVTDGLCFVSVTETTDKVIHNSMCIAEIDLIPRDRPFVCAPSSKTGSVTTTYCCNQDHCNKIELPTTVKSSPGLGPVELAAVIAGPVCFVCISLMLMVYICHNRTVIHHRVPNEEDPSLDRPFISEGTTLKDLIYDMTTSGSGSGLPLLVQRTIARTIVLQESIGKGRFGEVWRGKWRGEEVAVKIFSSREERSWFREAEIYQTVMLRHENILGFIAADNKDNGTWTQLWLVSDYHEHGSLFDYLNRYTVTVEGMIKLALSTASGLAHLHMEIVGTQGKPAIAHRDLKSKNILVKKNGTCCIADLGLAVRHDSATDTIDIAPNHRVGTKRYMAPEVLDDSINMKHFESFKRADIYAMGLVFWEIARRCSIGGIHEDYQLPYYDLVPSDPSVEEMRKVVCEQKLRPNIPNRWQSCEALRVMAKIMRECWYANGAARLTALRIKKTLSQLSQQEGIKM
From the text: as §1

[10] = target: 320 wild-type protein kinases (Homo sapiens, UniProt P17252); conditions: PKC-alpha, singlicate
From the text: as §1

[11] = target: 320 wild-type protein kinases (Homo sapiens, UniProt Q15746); conditions: MYLK, singlicate
From the text: as §1

[12] = target: 320 wild-type protein kinases (Homo sapiens, UniProt Q9Y243); conditions: singlicate
From the text: as §1

[13] = target: 320 wild-type protein kinases (Homo sapiens, UniProt P08922); conditions: kinase ROS, singlicate
From the text: as §1

[14] = target: 320 wild-type protein kinases (Homo sapiens, UniProt Q96RR4); conditions: singlicate
From the text: as §1

Chain of 320 wild-type protein kinases (Homo sapiens, UniProt Q02779) (Q02779 whole entry): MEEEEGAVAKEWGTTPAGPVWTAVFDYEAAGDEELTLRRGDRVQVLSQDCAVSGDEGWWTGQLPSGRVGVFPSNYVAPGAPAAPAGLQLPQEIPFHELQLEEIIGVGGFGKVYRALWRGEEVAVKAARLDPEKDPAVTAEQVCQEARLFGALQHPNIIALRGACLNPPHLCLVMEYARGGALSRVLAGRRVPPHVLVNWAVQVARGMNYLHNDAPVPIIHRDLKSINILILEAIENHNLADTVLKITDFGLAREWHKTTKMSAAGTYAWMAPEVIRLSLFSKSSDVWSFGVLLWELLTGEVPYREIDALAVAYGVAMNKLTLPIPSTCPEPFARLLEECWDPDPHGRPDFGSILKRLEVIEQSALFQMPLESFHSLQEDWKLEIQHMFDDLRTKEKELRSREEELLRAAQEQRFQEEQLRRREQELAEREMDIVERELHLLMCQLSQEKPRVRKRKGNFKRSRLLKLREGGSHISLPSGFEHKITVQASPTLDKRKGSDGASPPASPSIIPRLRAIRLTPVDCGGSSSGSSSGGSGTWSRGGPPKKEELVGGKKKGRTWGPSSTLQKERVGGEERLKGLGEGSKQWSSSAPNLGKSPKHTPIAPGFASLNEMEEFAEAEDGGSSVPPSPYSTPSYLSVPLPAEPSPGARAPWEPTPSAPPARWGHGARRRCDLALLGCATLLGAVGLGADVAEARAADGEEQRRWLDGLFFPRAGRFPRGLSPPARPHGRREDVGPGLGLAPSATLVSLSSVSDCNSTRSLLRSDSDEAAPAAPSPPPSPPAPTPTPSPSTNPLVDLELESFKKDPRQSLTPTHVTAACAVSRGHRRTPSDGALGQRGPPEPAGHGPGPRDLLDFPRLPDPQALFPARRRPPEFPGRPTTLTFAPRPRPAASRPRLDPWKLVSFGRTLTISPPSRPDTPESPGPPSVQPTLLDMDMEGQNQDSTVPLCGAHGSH
Chain of 320 wild-type protein kinases (Homo sapiens, UniProt Q96RR4) (Q96RR4 whole entry): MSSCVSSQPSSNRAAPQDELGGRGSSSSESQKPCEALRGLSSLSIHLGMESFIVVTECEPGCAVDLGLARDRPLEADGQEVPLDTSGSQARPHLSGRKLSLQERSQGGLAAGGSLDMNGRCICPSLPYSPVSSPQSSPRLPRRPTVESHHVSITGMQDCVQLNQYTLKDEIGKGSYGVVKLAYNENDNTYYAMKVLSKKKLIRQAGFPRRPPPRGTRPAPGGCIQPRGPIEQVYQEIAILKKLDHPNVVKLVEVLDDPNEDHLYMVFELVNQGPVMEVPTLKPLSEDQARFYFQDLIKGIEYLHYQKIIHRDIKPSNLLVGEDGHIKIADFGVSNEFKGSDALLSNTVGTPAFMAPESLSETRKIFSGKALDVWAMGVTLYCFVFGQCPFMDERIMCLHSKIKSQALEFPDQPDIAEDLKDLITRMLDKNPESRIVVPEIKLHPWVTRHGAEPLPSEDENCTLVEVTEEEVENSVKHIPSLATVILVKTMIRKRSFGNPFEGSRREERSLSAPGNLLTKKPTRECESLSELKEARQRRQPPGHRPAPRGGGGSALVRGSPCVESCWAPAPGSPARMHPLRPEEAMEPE
Chain of 320 wild-type protein kinases (Homo sapiens, UniProt P08922) (P08922 28-2347): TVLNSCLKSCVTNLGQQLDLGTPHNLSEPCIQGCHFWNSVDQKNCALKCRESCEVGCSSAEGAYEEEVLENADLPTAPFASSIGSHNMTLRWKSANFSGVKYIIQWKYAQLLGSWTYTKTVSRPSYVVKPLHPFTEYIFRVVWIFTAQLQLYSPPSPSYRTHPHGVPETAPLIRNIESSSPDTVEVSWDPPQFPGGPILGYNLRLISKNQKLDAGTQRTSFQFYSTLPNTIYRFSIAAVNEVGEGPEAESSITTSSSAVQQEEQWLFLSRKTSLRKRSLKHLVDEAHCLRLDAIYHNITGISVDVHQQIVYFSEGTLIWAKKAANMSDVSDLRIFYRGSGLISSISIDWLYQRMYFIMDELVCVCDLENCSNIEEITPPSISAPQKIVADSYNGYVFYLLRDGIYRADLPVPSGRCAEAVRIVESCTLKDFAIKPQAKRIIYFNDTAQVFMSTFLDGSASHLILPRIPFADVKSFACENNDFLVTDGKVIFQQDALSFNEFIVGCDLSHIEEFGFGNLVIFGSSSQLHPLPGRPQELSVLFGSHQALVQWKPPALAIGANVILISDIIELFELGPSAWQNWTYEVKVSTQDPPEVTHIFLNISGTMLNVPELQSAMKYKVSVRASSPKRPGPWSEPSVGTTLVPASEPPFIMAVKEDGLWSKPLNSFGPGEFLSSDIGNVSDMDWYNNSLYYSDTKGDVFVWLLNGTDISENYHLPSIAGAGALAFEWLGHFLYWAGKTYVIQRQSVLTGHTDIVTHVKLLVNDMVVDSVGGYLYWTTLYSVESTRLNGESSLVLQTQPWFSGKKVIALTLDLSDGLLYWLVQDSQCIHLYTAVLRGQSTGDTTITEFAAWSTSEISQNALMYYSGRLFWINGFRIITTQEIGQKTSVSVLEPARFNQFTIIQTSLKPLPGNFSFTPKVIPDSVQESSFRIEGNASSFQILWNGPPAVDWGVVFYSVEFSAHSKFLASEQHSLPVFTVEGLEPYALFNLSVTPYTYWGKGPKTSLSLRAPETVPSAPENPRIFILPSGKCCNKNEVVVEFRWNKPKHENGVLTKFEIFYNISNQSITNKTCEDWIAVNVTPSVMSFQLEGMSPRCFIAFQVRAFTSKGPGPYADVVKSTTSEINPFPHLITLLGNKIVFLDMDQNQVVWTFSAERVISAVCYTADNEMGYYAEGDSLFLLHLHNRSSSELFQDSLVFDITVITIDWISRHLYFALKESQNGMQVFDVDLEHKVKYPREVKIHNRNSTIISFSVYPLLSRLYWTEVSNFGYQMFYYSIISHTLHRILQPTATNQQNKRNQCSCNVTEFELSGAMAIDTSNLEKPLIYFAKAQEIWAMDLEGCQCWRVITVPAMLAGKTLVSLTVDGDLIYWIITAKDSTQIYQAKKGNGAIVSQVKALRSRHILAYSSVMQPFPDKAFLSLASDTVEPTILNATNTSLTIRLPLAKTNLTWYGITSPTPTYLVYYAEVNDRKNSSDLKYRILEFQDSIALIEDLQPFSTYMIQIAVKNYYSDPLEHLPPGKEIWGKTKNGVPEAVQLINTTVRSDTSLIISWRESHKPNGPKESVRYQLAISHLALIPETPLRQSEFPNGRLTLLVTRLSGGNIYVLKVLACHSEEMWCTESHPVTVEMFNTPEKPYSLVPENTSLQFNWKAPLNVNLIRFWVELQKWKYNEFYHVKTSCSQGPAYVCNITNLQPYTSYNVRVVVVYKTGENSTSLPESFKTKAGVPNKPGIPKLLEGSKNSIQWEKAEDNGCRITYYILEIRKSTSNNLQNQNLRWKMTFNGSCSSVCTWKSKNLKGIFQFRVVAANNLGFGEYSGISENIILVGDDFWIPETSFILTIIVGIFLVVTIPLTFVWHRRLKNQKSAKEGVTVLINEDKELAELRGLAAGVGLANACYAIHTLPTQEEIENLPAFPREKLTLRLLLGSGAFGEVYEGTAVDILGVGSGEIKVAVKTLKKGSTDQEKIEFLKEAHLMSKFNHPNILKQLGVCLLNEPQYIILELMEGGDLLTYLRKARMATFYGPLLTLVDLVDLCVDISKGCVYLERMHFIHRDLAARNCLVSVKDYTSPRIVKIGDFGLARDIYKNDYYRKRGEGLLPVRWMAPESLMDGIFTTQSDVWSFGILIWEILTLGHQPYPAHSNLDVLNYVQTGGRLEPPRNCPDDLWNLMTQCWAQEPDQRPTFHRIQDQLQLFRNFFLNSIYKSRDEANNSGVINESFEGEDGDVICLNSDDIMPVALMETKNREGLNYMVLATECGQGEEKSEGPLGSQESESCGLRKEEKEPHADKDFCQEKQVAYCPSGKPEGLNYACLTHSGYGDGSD
Chain of 320 wild-type protein kinases (Homo sapiens, UniProt Q9Y243) (Q9Y243 whole entry): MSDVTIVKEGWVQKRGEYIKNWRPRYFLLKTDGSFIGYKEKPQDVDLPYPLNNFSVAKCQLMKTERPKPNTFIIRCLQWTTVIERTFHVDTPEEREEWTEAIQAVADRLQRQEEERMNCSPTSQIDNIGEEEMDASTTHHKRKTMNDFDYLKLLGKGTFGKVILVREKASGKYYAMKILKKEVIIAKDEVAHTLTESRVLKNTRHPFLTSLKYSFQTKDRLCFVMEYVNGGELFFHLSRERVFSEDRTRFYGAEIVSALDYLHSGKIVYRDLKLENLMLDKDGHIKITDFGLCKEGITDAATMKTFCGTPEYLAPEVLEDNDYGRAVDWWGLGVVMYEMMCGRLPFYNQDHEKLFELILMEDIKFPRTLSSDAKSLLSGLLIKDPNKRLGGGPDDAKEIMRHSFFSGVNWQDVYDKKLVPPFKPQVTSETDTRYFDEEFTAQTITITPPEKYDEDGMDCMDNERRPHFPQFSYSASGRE

C#Cc1cc(Nc2ncnc3cc(OC)c(OC)cc23)ccc1Cl [Compound 45]
Residual activity ([1]; MAP3K10, 1.0E-06 M): 86 % of control
Residual activity ([1]; MAP3K10, 1.0E-07 M): 92 % of control
Residual activity ([2]; JNK1, 1.0E-06 M): 94 % of control
Residual activity ([2]; JNK1, 1.0E-07 M): 113 % of control
Residual activity ([3]; 1.0E-06 M): 110 % of control
Residual activity ([3]; 1.0E-07 M): 102 % of control
Residual activity ([4]; 1.0E-06 M): 72 % of control
Residual activity ([4]; 1.0E-07 M): 102 % of control
Residual activity, WEE1 ([5]; assay conc. 1.0E-06 M): 76 % of control
Residual activity, WEE1 ([5]; assay conc. 1.0E-07 M): 109 % of control
Residual activity, TSK2 ([6]; assay conc. 1.0E-06 M): 331 % of control
Residual activity, TSK2 ([6]; assay conc. 1.0E-07 M): 109 % of control
Residual activity, SGK1 ([7]; assay conc. 1.0E-06 M): 88 % of control
Residual activity, SGK1 ([7]; assay conc. 1.0E-07 M): 99 % of control
Residual activity ([8]; 1.0E-06 M): 76 % of control
Residual activity ([8]; 1.0E-07 M): 110 % of control
Residual activity, TGFB-R1 ([9]; assay conc. 1.0E-06 M): 75 % of control
Residual activity, TGFB-R1 ([9]; assay conc. 1.0E-07 M): 84 % of control
Residual activity ([10]; 1.0E-06 M): 94 % of control
Residual activity ([10]; 1.0E-07 M): 111 % of control
Residual activity ([11]; 1.0E-06 M): 71 % of control
Residual activity ([11]; 1.0E-07 M): 92 % of control
Residual activity ([12]; AKT3 aa106-479, 1.0E-06 M): 101 % of control
Residual activity ([12]; AKT3 aa106-479, 1.0E-07 M): 96 % of control
Residual activity, ROS ([13]; assay conc. 1.0E-06 M): 89 % of control
Residual activity, ROS ([13]; assay conc. 1.0E-07 M): 96 % of control
Residual activity ([14]; CAMKK2, 1.0E-06 M): 74 % of control
Residual activity ([14]; CAMKK2, 1.0E-07 M): 79 % of control

C#Cc1cc(Nc2ncnc3cc(I)ccc23)ccc1Cl [Compound 41]
Residual activity ([1]; MAP3K10, 1.0E-06 M): 93 % of control
Residual activity ([1]; MAP3K10, 1.0E-07 M): 102 % of control
Residual activity ([2]; JNK1, 1.0E-06 M): 91 % of control
Residual activity ([2]; JNK1, 1.0E-07 M): 90 % of control
Residual activity ([3]; 1.0E-06 M): 96 % of control
Residual activity ([3]; 1.0E-07 M): 109 % of control
Residual activity ([4]; 1.0E-06 M): 90 % of control
Residual activity ([4]; 1.0E-07 M): 110 % of control
Residual activity, WEE1 ([5]; assay conc. 1.0E-06 M): 87 % of control
Residual activity, WEE1 ([5]; assay conc. 1.0E-07 M): 112 % of control
Residual activity, TSK2 ([6]; assay conc. 1.0E-06 M): 123 % of control
Residual activity, TSK2 ([6]; assay conc. 1.0E-07 M): 113 % of control
Residual activity, SGK1 ([7]; assay conc. 1.0E-06 M): 77 % of control
Residual activity, SGK1 ([7]; assay conc. 1.0E-07 M): 103 % of control
Residual activity ([8]; 1.0E-06 M): 101 % of control
Residual activity ([8]; 1.0E-07 M): 107 % of control
Residual activity, TGFB-R1 ([9]; assay conc. 1.0E-06 M): 81 % of control
Residual activity, TGFB-R1 ([9]; assay conc. 1.0E-07 M): 86 % of control
Residual activity ([10]; 1.0E-06 M): 95 % of control
Residual activity ([10]; 1.0E-07 M): 86 % of control
Residual activity ([11]; 1.0E-06 M): 58 % of control
Residual activity ([11]; 1.0E-07 M): 98 % of control
Residual activity ([12]; AKT3 aa106-479, 1.0E-06 M): 97 % of control
Residual activity ([12]; AKT3 aa106-479, 1.0E-07 M): 94 % of control
Residual activity, ROS ([13]; assay conc. 1.0E-06 M): 88 % of control
Residual activity, ROS ([13]; assay conc. 1.0E-07 M): 95 % of control
Residual activity ([14]; CAMKK2, 1.0E-06 M): 71 % of control
Residual activity ([14]; CAMKK2, 1.0E-07 M): 96 % of control
